48 compounds from PubChem BioAssay AID504703 (Southern Research Specialized Biocontainment Screening …, 2011) can be followed below.

The subject of the experiment is M. tuberculosis H37Rv growth inhibition with meropenem. The experiment is described as follows: M. tuberculosis growth inhibition, H37Rv, set 2, dose response (AID 504703).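 Further: growth ran 7 days at 37 °C then overnight with Alamar Blue before reading.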
[1] abbreviates: M. tuberculosis H37Rv growth inhibition, measured here: IC50 without meropenem.
Setting [2] is: M. tuberculosis H37Rv growth inhibition, measured here: IC90 without meropenem.
[3] abbreviates: measured here: IC90 with meropenem.

The structures appear in SMILES notation. Where “and” joins values, the source holds several entries; their conditions need not be identical. Equal entries are not always repeated. Calls of active or inactive are those of the source. How the calls were made is not given here.

Turning to `COC(=O)c1sc(-c2ccc(C(C)(C)C)cc2)cc1NC(=O)CCC(=O)O`, the IC50 was 7320 nM (inactive). For the same compound, the IC50 under setting [1] is 13500 nM and 9450 nM. This compound returned an IC90 under setting [2] above 25 µM. Also, under setting [3], the IC90 is above 25 µM.
The compound `Cc1ccccc1OCC(=O)Nc1noc(-c2ccccc2)n1` came in with an IC50 under setting [1] above 25000 nM. Further, the IC90 under setting [2] was above 25 µM.
Under setting [1], `Oc1ccc2[nH]ccc2c1` returned an IC50 above 25000 nM. This compound also came in with an IC90 under setting [2] above 25 µM.
Under setting [1], `CC(=O)Nc1ccc2nc(NC(=O)COc3ccccc3)sc2c1` displayed an IC50 above 25000 nM. In addition, the IC90 under setting [2] is above 25 µM.
Under setting [1], `CCOc1ccc2c(c1)c(C(C)=O)c(C)n2Cc1ccco1` yielded an IC50 above 25000 nM. The compound further yielded a 90% effect concentration (IC90) under setting [2] above 25 µM.
For `CCC(CC)c1nnc(NC(=O)c2ccc(N3CCCCC3)c([N+](=O)[O-])c2)s1` the same measures were above 25000 nM and above 25 µM.
Under setting [1], `COc1ccc2nc(NC(=O)COc3ccc(Cl)cc3)sc2c1` gave an IC50 above 25000 nM. This compound also registered an IC90 under setting [2] above 25 µM.
Regarding `Cc1cc2cc(F)ccc2n1-c1ccccc1`, the concentration for half-maximal inhibition (IC50) under setting [1] was above 25000 nM. The same compound yielded an IC90 under setting [2] above 25 µM.
For the compound `N/C(=N\c1nc2ccccc2o1)NC(=O)c1ccc(F)cc1`, the IC50 was 9640 nM (inactive). Further, the 50% inhibitory concentration (IC50) under setting [1] came out at 21600 nM. This compound also showed an IC90 under setting [2] above 25 µM. The IC90 under setting [3] is above 25 µM.
Consider `CCOc1ccc2[nH]ccc2c1`, for which the IC50 under setting [1] was above 25000 nM. Under setting [2], the IC90 is above 25 µM.
In the case of `Cc1cc2cc(O)ccc2[nH]1`, the IC50 under setting [1] is above 25000 nM. Besides, the IC90 under setting [2] was above 25 µM.
As to `O=C(Cc1ccccc1Cl)Nc1nc2ccccc2[nH]1`, the IC50 was 18900 nM (inactive). Moreover, under setting [1], the IC50 was > 18800 nM and 16400 nM. Also, the IC90 under setting [2] is above 25 µM. Under setting [3], this compound returned an IC90 above 25 µM.
`COc1ccc2nc(NC(=O)COc3ccccc3C(C)C)sc2c1` showed an IC50 under setting [1] above 25000 nM. In addition, the IC90 under setting [2] is above 25 µM.
For `CC(=O)c1c(C)n(-c2ccc(C)cc2)c2ccc(O)cc12` the same measures were above 25000 nM and above 25 µM.
`Cc1cc2ccccc2[nH]1` came in with an IC50 under setting [1] above 25000 nM. For the same compound, under setting [2], the IC90 was above 25 µM.
On to `c1ccc(OCc2nnc(-c3ccccc3)o2)cc1`, for which the IC50 was 15000 nM (inactive). For the same compound, the IC50 under setting [1] was > 18800 nM and 15300 nM. This compound returned an IC90 under setting [2] above 25 µM. This compound had an IC90 under setting [3] above 25 µM.
As for `O=C(COc1ccc(Cl)cc1)Nc1nc2ccc(F)cc2s1`, the IC50 under setting [1] is above 25000 nM. The IC90 under setting [2] was above 25 µM.
On to `Cc1ccc(OCC(=O)Nc2ccc3c4c(cccc24)CC3)c(C)c1`, for which the IC50 under setting [1] was above 25000 nM. For the same compound, the IC90 is above 25 µM under setting [2] and above 25 µM under setting [3].
For `COc1ccc2[nH]c(C)cc2c1`, the IC50 under setting [1] is above 25000 nM. Besides, the IC90 under setting [2] is above 25 µM.
In the case of `COC(=O)c1c(C)n(-c2ccccc2)c2ccc(O)cc12`, the IC50 was 8.43 µM (inactive) and > 12.5 µM (inactive). The IC50 under setting [1] is above 25000 nM. Further, the IC90 under setting [2] is above 25 µM. Under setting [3], the IC90 is above 18.8 µM.
For `Cc1ccc(C(C)C)c(OCC(=O)Nc2nc3ccccc3s2)c1`, under setting [1], the IC50 was above 25000 nM. Under setting [2], the IC90 is above 25 µM.
Turning to `COC(=O)c1c(C)[nH]c2ccccc12`, the IC50 under setting [1] is above 25000 nM. Under setting [2], this compound yielded a 90% effect concentration (IC90) above 25 µM.
In the case of `CC(C)(Oc1ccc(Cl)cc1)C(=O)Nc1nc2ccccc2s1`, the IC50 under setting [1] is above 25000 nM. Further, the IC90 under setting [2] is above 25 µM.
`CC(=O)c1c(C)n(-c2ccccc2C)c2ccc(O)cc12` came in with an IC50 under setting [1] above 25000 nM. The IC90 under setting [2] was above 25 µM.
Take `Cc1ccc(OCC(=O)Nc2cccc3ccccc23)c(C)c1`: the IC50 was 20500 nM (inactive). In addition, the IC50 under setting [1] was above 25000 nM. Moreover, the IC90 under setting [2] is above 25 µM. The compound further registered an IC90 under setting [3] above 25 µM.
In turn, `Cc1ccc(OCC(=O)Nc2cccc3ncccc23)c(C)c1` came in with an IC50 under setting [1] above 25000 nM. Moreover, under setting [2], the IC90 is above 25 µM.
As to `CCOc1ccc2[nH]cc(C(=O)OC)c2c1`, the IC50 is > 25000 nM (inactive). Under setting [1], the IC50 was above 25000 nM. The compound further showed an IC90 under setting [2] above 25 µM. The compound further gave an IC90 under setting [3] above 25 µM.
The compound `CC(=O)Nc1ccc2nc(NC(=O)Cc3ccccc3)sc2c1` had an IC50 under setting [1] above 25000 nM. For the same compound, the IC90 under setting [2] was above 25 µM.
Compound `O=C(O)CCC(=O)Nc1nc2ccccc2s1` displayed an IC50 under setting [1] above 25000 nM. This compound also came in with an IC90 under setting [2] above 25 µM.
In the same order, the values of `COc1ccc2nc(NC(=O)COc3ccc(C)cc3)sc2c1` are above 25000 nM and above 25 µM.
In the case of `Cc1ccccc1OCC(=O)Nc1ncn[nH]1`, the IC50 under setting [1] was above 25000 nM. The compound also registered an IC90 under setting [2] above 25 µM.
Take `CCOC(=O)c1cnc2cc(-c3ccc(C(C)(C)C)cc3)nn2c1N`: the IC50 was 1990 nM (inactive). Besides, the IC50 under setting [1] is 1150 nM and 4110 nM. Under setting [2], the IC90 is above 25 µM. This compound also showed an IC90 under setting [3] above 25 µM.
Turning to `CCCOc1ccc2c(c1)c(C(C)=O)c(C)n2-c1ccccc1`, the 50% inhibitory concentration (IC50) under setting [1] was above 25000 nM. Besides, the IC90 under setting [2] was above 25 µM.
As to `OCCCc1cn(-c2ccccc2)c2ccccc12`, the IC50 is 14200 nM (inactive). Also, under setting [1], the IC50 was above 25000 nM. This compound also gave an IC90 under setting [2] above 25 µM. Besides, the IC90 under setting [3] is above 25 µM.
Regarding `CCOc1ccc(NC(=O)COc2ccc(C)cc2C)cc1`, the IC50 under setting [1] was above 25000 nM. The IC90 under setting [2] is above 25 µM.
In the same order, the values of `COc1ccc2nc(NC(=O)C(C)Oc3ccccc3)sc2c1` (configuration not stated) are above 25000 nM and above 25 µM.
On to `Cc1cccc(C)c1OCC(=O)Nc1nc2ccccc2s1`, for which the IC50 under setting [1] was above 25000 nM. This compound also came in with an IC90 under setting [2] above 25 µM.
Regarding `CCOc1ccc2c(c1)c(C(C)=O)c(C)n2-c1ccccc1C`, the IC50 under setting [1] is 23200 nM. Also, the IC90 reads like this: under setting [2], above 25 µM; under setting [3], 12.1 µM.
As to `CC(=O)c1c(C)n(-c2ccccc2)c2ccc(O)cc12`, the IC50 was 20100 nM (inactive). Besides, the IC50 under setting [1] was above 25000 nM. In addition, the IC90 under setting [2] is above 25 µM. This compound also gave a concentration for an effect of 90% (IC90) under setting [3] above 25 µM.
Take `Cc1ccc(OC(C)C(=O)Nc2ncccn2)c(C)c1` (configuration not stated): under setting [1], the IC50 was above 25000 nM. The same compound had an IC90 under setting [2] above 25 µM.
In turn, `COc1ccc2c(c1)cc(C)n2-c1ccccc1` had an IC50 under setting [1] above 25000 nM. Also, the IC90 under setting [2] was above 25 µM and the IC90 under setting [3] was above 25 µM.
With `O=C(Nc1ccccc1)Nc1csc2ccccc12`, under setting [1], the IC50 is 5500 nM and 1820 nM. Also, the IC90 reads like this: under setting [2], above 25 µM; under setting [3], above 25 µM.
Under setting [1], `Cc1ccccc1OCC(=O)Nc1ccccc1N1CCCCC1` gave an IC50 above 25000 nM. In addition, the IC90 was above 25 µM under setting [2] and above 25 µM under setting [3].
The compound `COc1ccc2c(c1)c(C(C)=O)c(C)n2-c1ccccc1` showed an IC50 under setting [1] above 25000 nM. The IC90 is, setting by setting: under setting [2], above 25 µM; under setting [3], above 18.8 µM.
Compound `COc1ccccc1C(=O)N/C(N)=N/c1nc2ccccc2o1` showed an IC50 under setting [1] above 25000 nM. The IC90 under setting [2] is above 25 µM.
For `COC(=O)c1c(C)[nH]c2ccc(Cl)cc12` the same measures were above 25000 nM and above 25 µM.
`CCOc1ccc2nc(NC(=O)COc3ccc(F)cc3)sc2c1` registered an IC50 under setting [1] above 25000 nM. Besides, the IC90 under setting [2] was above 25 µM.
In the same order, the values of `COC(=O)c1ccc2nc(NC(=O)COc3ccccc3)sc2c1` are above 25000 nM and above 25 µM.
